From PMC9120017, “Inhibition mechanism of the chloride channel TMEM16A by the pore blocker 1PBC” (Nature Communications, 2022)
Like-named read-outs stand apart in the source and are kept apart here.

Molecular target: T1, mouse TMEM16A mutant I640A (Mus musculus, UniProt Q8BHY3, I640A)
T1 construct: expressed in transfected cells; host or cells: HEK293T
T1 sequence (Q8BHY3 1-960 I640A): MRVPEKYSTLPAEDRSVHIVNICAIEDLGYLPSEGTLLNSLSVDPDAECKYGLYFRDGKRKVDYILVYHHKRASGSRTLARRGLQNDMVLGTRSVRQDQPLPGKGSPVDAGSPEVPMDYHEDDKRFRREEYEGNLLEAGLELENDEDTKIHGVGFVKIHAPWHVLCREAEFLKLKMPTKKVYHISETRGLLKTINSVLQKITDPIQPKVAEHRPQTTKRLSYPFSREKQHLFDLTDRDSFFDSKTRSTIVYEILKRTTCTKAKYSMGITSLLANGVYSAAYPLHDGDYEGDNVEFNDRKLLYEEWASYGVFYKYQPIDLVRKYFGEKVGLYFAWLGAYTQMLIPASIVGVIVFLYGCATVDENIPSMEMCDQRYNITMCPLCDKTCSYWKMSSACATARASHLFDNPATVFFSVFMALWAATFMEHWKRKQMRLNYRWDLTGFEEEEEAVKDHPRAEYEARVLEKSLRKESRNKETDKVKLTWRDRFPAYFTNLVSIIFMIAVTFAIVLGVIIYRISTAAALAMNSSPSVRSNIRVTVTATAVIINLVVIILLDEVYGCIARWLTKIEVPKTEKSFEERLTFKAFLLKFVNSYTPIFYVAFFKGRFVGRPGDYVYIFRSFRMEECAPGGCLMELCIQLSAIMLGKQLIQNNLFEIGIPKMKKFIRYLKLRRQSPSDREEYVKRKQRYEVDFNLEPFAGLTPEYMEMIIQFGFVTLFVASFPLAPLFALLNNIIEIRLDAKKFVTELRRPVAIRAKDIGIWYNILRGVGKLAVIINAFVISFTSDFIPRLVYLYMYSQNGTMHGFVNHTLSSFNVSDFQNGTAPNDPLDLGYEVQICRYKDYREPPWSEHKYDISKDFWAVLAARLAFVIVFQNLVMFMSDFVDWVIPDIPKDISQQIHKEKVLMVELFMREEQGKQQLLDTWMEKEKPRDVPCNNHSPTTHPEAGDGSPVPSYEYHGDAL
Assay: Inside-out patch recording of 1PBC block, mutant I640A
Type: cell-based
Conditions: for IC50: 15 µM Ca2+
Procedure: HEK293T cells (ATCC CRL-1573) were maintained in Dulbecco’s modified Eagle’s medium (DMEM; Sigma-Aldrich) supplemented with 10 U ml^−1 penicillin, 0.1 mg ml^−1 streptomycin (Sigma-Aldrich), 2 mM L-glutamine (Sigma-Aldrich), and 10% FBS (Sigma-Aldrich) in a humidified atmosphere containing 5% CO2 at 37 °C. HEK293S GnTI^− cells (ATCC CRL-3022) were maintained in HyClone HyCell TransFx-H medium (GE Healthcare) supplemented with 10 U ml^−1 penicillin, 0.1 mg ml^−1 streptomycin, 4 mM L-glutamine, 0.15% poloxamer 188 (Sigma-Aldrich), and 1% FBS in an atmosphere containing 5% CO2 at 185 rpm at 37 °C. The ac splice variant of mouse TMEM16A (UniProt ID: Q8BHY3), mouse TMEM16B (UniProt ID: Q8CFW1), or mouse TMEM16F (UniProt ID: Q6P9J9) bearing a 3C cleavage site, a Venus YFP, a Myc tag, and a Streptavidin-binding peptide (SBP) downstream of the open reading frame in a modified pcDNA3.1 vector (Invitrogen) were used as described previously[21],[31]. Mutations were introduced using a modified QuikChange method[58] and were verified by sequencing.
HEK293T cells were transfected with 3–4 μg DNA per 6 cm Petri dish using the calcium phosphate co-precipitation method and were used within 24–96 h after transfection. Recordings were performed on inside-out patches excised from HEK293T cells expressing the construct of interest. Patch pipettes were pulled from borosilicate glass capillaries (O.D. 1.5 mm, I.D. 0.86 mm, Sutter Instrument) and were fire-polished with a microforge (Narishige) before use. Pipette resistance was typically 3–8 MΩ when filled with the recording solutions detailed below. Seal resistance was typically 4 GΩ or higher. Voltage-clamp recordings were made using Axopatch 200B, Digidata 1550, and Clampex 10.7 (Molecular Devices). Analog signals were filtered with the in-built 4-pole Bessel filter at 10 kHz and were digitized at 20 kHz. Solution exchange was achieved using a gravity-fed system through a theta glass pipette mounted on an ultra-fast piezo-driven stepper (Siskiyou). […] All recordings were performed at 20 °C.
A symmetrical ionic condition was used throughout. Stock solution with Ca^2+-EGTA contained 150 mM NaCl, 5.99 mM Ca(OH)2, 5 mM EGTA, and 10 mM HEPES at pH 7.40. Stock solution with EGTA contained 150 mM NaCl, 5 mM EGTA, and 10 mM HEPES at pH 7.40. Free Ca^2+ concentrations were adjusted by mixing the stock solutions at the required ratios calculated using the WEBMAXC program (http://web.stanford.edu/~cpatton/webmaxcS.htm). Patch pipettes were filled with the stock solution with Ca^2+-EGTA, which has a free Ca^2+ concentration of 1 mM. 1PBC (ChemBridge) stock was reconstituted in anhydrous DMSO (Sigma-Aldrich) at 100 mM and stored at −20 °C. Working solutions with 1PBC were prepared by serial dilution. Unless otherwise stated, experiments were performed at a saturating Ca^2+ concentration as shown in Supplementary Table 1 and the primary data were corrected for current rundown as described previously[21],[25].
Concentration-response relations, obtained from the ratio of the I-V plots before and after the application of the blocker, were fitted to the Hill equation,1 I/Imax=1/1+IC50/[blocker]^h where I/Imax is the normalized current responses, IC50 defines the concentration at which inhibition is at its half-maximum, and h is the Hill coefficient.

## N#Cc1c(C(F)(F)F)cc(O)n2c1nc1ccccc12 [1PBC]
0 mV
  IC50: 31.5 µM
0 mV, 1PBC conc 3, read-out: relative current in 1PBC (avr)
  remaining activity at 3 µM: 90.3%
0 mV, 1PBC conc 10, read-out: relative current in 1PBC (avr)
  remaining activity at 10 µM: 75.5%
0 mV, 1PBC conc 30, read-out: relative current in 1PBC (avr)
  remaining activity at 30 µM: 52.3%
0 mV, 1PBC conc 100, read-out: relative current in 1PBC (avr)
  remaining activity at 100 µM: 23.3%
3 µM 1PBC, +80 mV, saturating Ca2+ (15 µM), read-out: I/Imax
  remaining activity at 3 µM: 89.4%
3 µM 1PBC, -80 mV, saturating Ca2+ (15 µM), read-out: I/Imax
  remaining activity at 3 µM: 92.4%
10 µM 1PBC, +80 mV, saturating Ca2+ (15 µM), read-out: I/Imax
  remaining activity at 10 µM: 67.9%
10 µM 1PBC, -80 mV, saturating Ca2+ (15 µM), read-out: I/Imax
  remaining activity at 10 µM: 84.6%
30 µM 1PBC, +80 mV, saturating Ca2+ (15 µM), read-out: I/Imax
  remaining activity at 30 µM: 43%
30 µM 1PBC, -80 mV, saturating Ca2+ (15 µM), read-out: I/Imax
  remaining activity at 30 µM: 64.1%
100 µM 1PBC, +80 mV, saturating Ca2+ (15 µM), read-out: I/Imax
  remaining activity at 100 µM: 17.7%
100 µM 1PBC, -80 mV, saturating Ca2+ (15 µM), read-out: I/Imax
  remaining activity at 100 µM: 34.6%
1PBC 3, V 0 mV
  normalised current (avr): -0.001271
1PBC 3, V 40 mV
  normalised current (avr): 0.2411
1PBC 3, V 60 mV
  normalised current (avr): 0.367
1PBC 3, V 80 mV
  normalised current (avr): 0.5025
1PBC 3, V 100 mV
  normalised current (avr): 0.651
1PBC 3, V 120 mV
  normalised current (avr): 0.7973
1PBC 3, V 140 mV
  normalised current (avr): 0.965
1PBC 3, V -20 mV
  normalised current (avr): -0.1226
1PBC 3, V -40 mV
  normalised current (avr): -0.2495
1PBC 3, V -60 mV
  normalised current (avr): -0.3836
1PBC 3, V -80 mV
  normalised current (avr): -0.5286
1PBC 3, V -100 mV
  normalised current (avr): -0.6862
1PBC 3, V -120 mV
  normalised current (avr): -0.8514
1PBC 3, V -140 mV
  normalised current (avr): -1.031
1PBC 10, V 0 mV
  normalised current (avr): -0.001063
1PBC 10, V 40 mV
  normalised current (avr): 0.1907
1PBC 10, V 60 mV
  normalised current (avr): 0.2862
1PBC 10, V 80 mV
  normalised current (avr): 0.3819
1PBC 10, V 100 mV
  normalised current (avr): 0.495
1PBC 10, V 120 mV
  normalised current (avr): 0.6083
1PBC 10, V 140 mV
  normalised current (avr): 0.7528
1PBC 10, V -20 mV
  normalised current (avr): -0.1054
1PBC 10, V -40 mV
  normalised current (avr): -0.2204
1PBC 10, V -60 mV
  normalised current (avr): -0.3486
1PBC 10, V -80 mV
  normalised current (avr): -0.4836
1PBC 10, V -100 mV
  normalised current (avr): -0.6367
1PBC 10, V -120 mV
  normalised current (avr): -0.7969
1PBC 10, V -140 mV
  normalised current (avr): -0.9705
1PBC 30, V 0 mV
  normalised current (avr): -0.0007361
1PBC 30, V 40 mV
  normalised current (avr): 0.1262
1PBC 30, V 60 mV
  normalised current (avr): 0.1828
1PBC 30, V 80 mV
  normalised current (avr): 0.2416
1PBC 30, V 100 mV
  normalised current (avr): 0.3073
1PBC 30, V 120 mV
  normalised current (avr): 0.3826
1PBC 30, V 140 mV
  normalised current (avr): 0.476
1PBC 30, V -20 mV
  normalised current (avr): -0.07452
1PBC 30, V -40 mV
  normalised current (avr): -0.1601
1PBC 30, V -60 mV
  normalised current (avr): -0.2555
1PBC 30, V -80 mV
  normalised current (avr): -0.3668
1PBC 30, V -100 mV
  normalised current (avr): -0.4877
1PBC 30, V -120 mV
  normalised current (avr): -0.6228
1PBC 30, V -140 mV
  normalised current (avr): -0.7629
1PBC 100, V 0 mV
  normalised current (avr): -0.0003287
1PBC 100, V 60 mV
  normalised current (avr): 0.07288
1PBC 100, V 80 mV
  normalised current (avr): 0.09923
1PBC 100, V 100 mV
  normalised current (avr): 0.1285
1PBC 100, V 120 mV
  normalised current (avr): 0.1506
1PBC 100, V 140 mV
  normalised current (avr): 0.1846
1PBC 100, V -20 mV
  normalised current (avr): -0.0346
1PBC 100, V -40 mV
  normalised current (avr): -0.07836
1PBC 100, V -60 mV
  normalised current (avr): -0.1311
1PBC 100, V -80 mV
  normalised current (avr): -0.1979
1PBC 100, V -100 mV
  normalised current (avr): -0.2777
1PBC 100, V -120 mV
  normalised current (avr): -0.3667
1PBC 100, V -140 mV
  normalised current (avr): -0.4836
20 mV
  IC50: 27.5 µM
20 mV, 1PBC conc 3, read-out: relative current in 1PBC (avr)
  remaining activity at 3 µM: 89.4%
20 mV, 1PBC conc 10, read-out: relative current in 1PBC (avr)
  remaining activity at 10 µM: 72.5%
20 mV, 1PBC conc 30, read-out: relative current in 1PBC (avr)
  remaining activity at 30 µM: 49.1%
20 mV, 1PBC conc 100, read-out: relative current in 1PBC (avr)
  remaining activity at 100 µM: 20.9%
40 mV
  IC50: 24.7 µM
40 mV, 1PBC conc 3, read-out: relative current in 1PBC (avr)
  remaining activity at 3 µM: 89%
40 mV, 1PBC conc 10, read-out: relative current in 1PBC (avr)
  remaining activity at 10 µM: 70.4%
40 mV, 1PBC conc 30, read-out: relative current in 1PBC (avr)
  remaining activity at 30 µM: 46.6%
